Laboratory results as given in patent US20120070511A1, “MITOCHONDRIAL INHIBITORS AND USES THEREOF” (priority 2009, published 2012).

What was measured:
Assay type in all cases: cell-based
[1] = test system: non-myeloma cell lines (NALM6, 143B, MDA-MB-435, 1420); conditions: higher concentrations; all cell types
Description: Cytotoxicity assay: Cells were incubated for 24 hr at 37° C. in 5% CO2 at which time drug treatments began and continued for 24 hr. At this time attached cells were trypsinized and combined with their respective culture media while suspension cells were directly transferred to a tube followed by centrifugation at 400 g for 5 min. The pellets were resuspended in 1 ml of Hanks solution and analyzed by Vi-Cell (Beckman Coulter, Fullerton, Calif.) cell viability analyzer.

[2] = test system: CHOP/GADD153 and cleaved caspase 3 in 4 MM cell lines; test: Western blot of CHOP/GADD153 and cleaved caspase 3 (UPR-mediated apoptosis); conditions: all 4 MM cell lines
Description: Western Blot analysis: Cells are plated at 10^4 cell/cm^−2 for attached cells and 3×10^5/ml for suspension cells and grown under drug treatment for the indicated times. At the end of the treatment period, cells are collected and lysed with 1% SDS in 80 mM Tris-HCL (ph 7.4) buffer supplemented with a proteinase inhibitor cocktail. DNA is fragmented by sonication and protein concentrations are measured by microBCA protein assay kit (Pierce, Rockford, Ill.). Samples are mixed with 3× Laemmli sample buffer (Cell Signaling, Danvers, Mass.) and 40 μg of protein was run on a 12% SDS-polyacrylamide gel. Gels are transferred to nitrocellulose membranes (Amersham, Piscataway, N.J.) and probed with monoclonal rabbit anti-GRP94, anti GRP-78, anti-PDI, anti-CHOP/GADD153, anti-cleaved caspase 3 (Cell Signaling, Danvers, Mass.) and monoclonal mouse anti-β-actin (Sigma, St. Louis, Mo.). Following probing, membranes are washed and incubated with HRP-conjugated secondary antibody (Invitrogen, Carlsbad, Calif.). Following addition of 1:3 diluted femto-chemiluminescent substrate (Pierce, Rockford, Ill.) membranes were exposed to blue autoradiographic film (ISC bioexpress, Kaysville, Utah). Where indicated, membranes were stripped with Stripping Buffer (Pierce, Rockford, Ill.) and reprobed with anti-β-actin (Sigma-Aldrich, St. Louis, Mo.) primary antibody. When needed, the blots were quantified using Bio-Rad gel reader which employs Quality I software (Bio-Rad, Hercules, Calif.).

MM.1S and REH cells = test: ATP levels after 6 h of CCCP treatment; conditions: 6 h CCCP; REH versus MM.1S
Description: A) Reversal of CCCP induced toxicity by either 10 μM BAPTA-AM or 50 μM of Z-VAD was investigated using trypan blue exclusion assays. The bars represent the average of triplicate samples +SD. B) ATP levels were assayed following 6 h of treatment with indicated concentrations of CCCP. The bars represent the average of triplicate samples +SD. C) Induction of UPR, activation of AMPK pathway and cleavage of caspase 3 was analyzed by western blots following 24 h treatment with indicated concentrations of CCCP in MM.1S and REH cell lines. β-Actin was used as a loading control. D) The quantification of phosphorylated AMPK and total AMPK bands in the previous panel was done using a Bio-Rad gel reader which employs Quality I software. The bars represent the fold increase in the ratio of p-AMPK/AMPK in treated versus untreated samples from three independent experiments +SD.

Compound: N#CC(C#N)=NNc1cccc(Cl)c1 [CCCP]
- cytotoxicity at higher concentrations [1]: significant toxicity is induced in all cell types
- treatment time at which CHOP/GADD153 expression is noted [2]: 3 h
- ATP levels (MM.1S and REH cells): decreased more significantly in REH cells, as compared to MM.1S cells
